Reference: PubChem BioAssay (NCI)
Several values for one entry are separate records, joined by “and”; a condition that tells them apart may be missing. Equal entries are not always repeated.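 Values below derive from 48-hour exposures of cells grown in 96-well plates, with endpoints linearly interpolated between the two concentrations bracketing the appropriate inhibition level. Abbreviation: GI50, concentration required for 50% inhibition of growth. The concentration for full growth arrest is given as TGI.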

Columns and labels:
Test in all cases: DTP human tumour cell line panel, 48 h
[1] = system: A549 NSCLC
[2] = system: HOP-62 NSCLC
[3] = system: HS 578T breast
[4] = system: IGROV1 ovarian
[5] = system: KM12 colon
[6] = system: M14 melanoma
[7] = system: NCI-H522 lung
[8] = system: RPMI-8226 leukemia
[9] = system: SK-OV-3 ovarian
[10] = system: UACC-62 melanoma

SMILES	GI50 [1]	TGI [1]	GI50 [2]	TGI [2]	GI50 [3]	TGI [3]	GI50 [4]	TGI [4]	GI50 [5]	TGI [5]	GI50 [6]	TGI [6]	GI50 [7]	TGI [7]	GI50 [8]	TGI [8]	GI50 [9]	TGI [9]	GI50 [10]	TGI [10]
C[C@@H]1CCC2[C@@H](C)[C@H](OC(=O)CCC(=O)NCCNC(=O)Cc3cc(=O)oc4cc(N(C)C)ccc34)O[C@@H]3O[C@]4(C)CC[C@@H]1C23OO4 (some centres undefined)	4.52 µM	23.1 µM	12.5 µM	> 62 µM	3.21 µM	> 33.1 µM	2.55 µM	17.7 µM	0.432 µM	16.3 µM	2.13 µM	> 74.5 µM	0.731 µM	11.1 µM	0.378 µM	32.9 µM	29 µM	> 100 µM	0.711 µM	> 91 µM
c1ccc([P+](CCC[P+](c2ccccc2)(c2ccccc2)c2ccccc2)(c2ccccc2)c2ccccc2)cc1	14.5 µM	> 100 µM	18 µM	> 100 µM	11.8 µM	85.4 µM	14 µM	> 100 µM	3.86 µM	> 100 µM	27.6 µM	> 100 µM	3.53 µM	> 100 µM and 24.8 µM	1.27 µM	> 100 µM and 10.1 µM	69.1 µM	> 100 µM		> 100 µM
Cc1[nH]ccc2cc3nc4ccccc4c3cc12	2.5 µM	12.2 µM	2.79 µM	12.8 µM	3.26 µM	18 µM	3.65 µM	15.2 µM	2.45 µM	11.8 µM	2.47 µM	11.1 µM	2.22 µM	9.72 µM	1.53 µM	3.87 µM	5.42 µM	18.1 µM	3.52 µM	12.3 µM
C#CCOc1cccc(Nc2ncnc3c2ncn3C2CCN(C(=O)CCl)C2)c1 (centres undefined)	> 100 µM	> 100 µM	33.3 µM	> 100 µM	24.7 µM	91.5 µM	16.4 µM	36.7 µM	23.4 µM	58.2 µM	16.9 µM	48.5 µM	5.02 µM	19.7 µM	21 µM	44.2 µM	> 100 µM	> 100 µM	18.1 µM	35.4 µM
CSc1ccc(C(=O)/C=C/c2ccc(F)cc2)cc1	64.4 µM	> 100 µM	> 100 µM	> 100 µM	> 100 µM	> 100 µM	28.2 µM	65.9 µM	70.9 µM	> 100 µM	> 100 µM	> 100 µM	38.9 µM	> 100 µM	22.9 µM	54.2 µM	> 100 µM	> 100 µM	> 100 µM	> 100 µM
Cc1cc(Cl)ccc1Nc1nc(C(F)(F)F)ccc1C(=O)N/N=C/c1ccc(N(C)C)cc1	3.86 µM	> 100 µM	2.38 µM	> 100 µM	2.7 µM	> 100 µM	2.03 µM	9.11 µM	3.4 µM	> 100 µM	1.2 µM	8.75 µM	3.07 µM	> 100 µM	2.94 µM	> 100 µM	2.19 µM	> 100 µM	2.29 µM	> 100 µM
CCN1CCN(c2nc(C)cc(N(CCCNc3ccnc4cc(Cl)ccc34)Cc3ccco3)n2)CC1	4.51 µM	16.5 µM	3.22 µM	14.1 µM	2.87 µM	9.97 µM	3.38 µM	15.4 µM	5.07 µM	19.4 µM	1.89 µM	3.63 µM	3.12 µM	12 µM	2.31 µM	5.77 µM	7.82 µM	30.7 µM	1.97 µM	3.97 µM
O=C(O)CCc1nc(-c2ccccc2)c(-c2ccccc2)o1		> 100 µM		> 100 µM		> 100 µM		> 100 µM		> 100 µM		> 100 µM		> 100 µM		> 100 µM		> 100 µM		> 100 µM
COc1ccc(-c2cc3nccn3c(Nc3ncccc3C(N)=O)n2)cc1OC	3 µM	> 100 µM	3.18 µM	> 100 µM	> 31.8 µM	> 100 µM	0.472 µM	6.19 µM	2.62 µM	27.3 µM	> 65.7 µM	> 100 µM	1.18 µM	> 100 µM	2.75 µM	> 100 µM	> 100 µM	> 100 µM	0.742 µM	> 100 µM
c1cc(C2N3CCCN2CC3)ccn1 (centres undefined)		> 100 µM		> 100 µM		67.7 µM		> 100 µM		> 100 µM		> 100 µM		18.4 µM		71 µM		> 100 µM		> 100 µM
COc1ccc(Cn2cc3c(c2-c2ccccc2)CCc2cncnc2-3)cc1	3.55 µM	14.1 µM	12 µM	31.3 µM	1.58 µM	6.51 µM	5.8 µM	23.9 µM	3.57 µM	13.5 µM	4.2 µM	18.2 µM	5.05 µM	21 µM	2.69 µM	8.62 µM	9.04 µM	31.2 µM	3.47 µM	16.5 µM
COc1ccc(NCc2c(O)ccc3ccccc23)cc1		> 100 µM		> 100 µM		> 100 µM		> 100 µM		> 100 µM		47.6 µM		28 µM		63.6 µM		> 100 µM		> 100 µM
COc1ccc(Cn2c3c(c4c(O)cccc42)C(=O)c2ccccc2-3)cc1	8.52 µM	32 µM	4.39 µM	14.9 µM	4.44 µM	20.4 µM	11.2 µM	> 100 µM	7.65 µM	22 µM	14.4 µM	38 µM	12.3 µM	93.1 µM	11.8 µM	33.9 µM	14.9 µM	28.1 µM	14.5 µM	30.1 µM
